Assay results from patent US20030181507A1, “Use of 3-substituted oxindole derivatives as kcnq potassium channel modulators” (priority 2000, published 2003).

What was measured:
KCNQ4 [1] = target: T1, KCNQ4 (Homo sapiens, UniProt P56696); test: Membrane potential in current clamp mode, KCNQ4 expressing cell; format: cell-based; settings: FIG. 3; for membrane potential after addition of compound: 10 μM in bath solution, whole cell, initial resting potential around −60 mV, sequential additions to same cell
T1 construct: expressed in transfected cells; host or cells: HEK-293
Description: (§1) KCNQ4 and KCNQ5 was sub-cloned into the mammalian expression vector pNS1n (NeuroSearch), a custom-designed derivative of pcDNA3Neo (InVitrogen). HEK-293 cells (American Type Culture Collection) were grown in DMEM (Life Technologies) supplemented with 10% FCS (Life Technologies) at 37° C. in 5% CO2.
(§2) One day prior to transfection, 10^6 cells were plated in a cell culture T25 flask (Nunc). Cells were transfected with 2.5 μg of the plasmid pNS1n_KCNQ4 or with 2.5 μg of the plasmid pNS1n_KCNQ5 using Lipofectamine (Life Technologies) according to the manufacturer's instructions. Cells transfected with pNS1n_KCNQ4 or pNS1n_KCNQ5 were selected in media supplemented with 0.5 mg/ml geneticin (G418; Life Technologies).
(§3) Single clones were picked and propagated in selection media for five passages after which they were considered stable. Following the cells were cultured in regular medium without selection agent.
Expression of functional KCNQ4 channels or KCNQ5 channels was verified by patch-clamp measurements.
Transfected cells were cultured on glass cover slips (Ø=3 mm), which were transferred to a small recording chamber. The chamber was perfused with extracellular solutions at a rate of 1 ml/min giving rise to full exchange of the chamber volume (15 μl) each second.
Whole-cell currents were recorded using a HEKA EPC-9 amplifier and borosilicate glass micropipettes with tip resistances of 1.5-3 MΩ. Series resistances were below 5 MΩ, mostly stayed constant during the experiment and were compensated by 70%. The currents were not leak-subtracted.
All experiments were performed at room temperature (21-25° C.). Igor software (WaveMetrics, Lake Oswego, Oreg.) was used for the analysis.
The bath solution consisted of 144 mM NaCl, 4 mM KCl, 2 mM CaCl2, 1 mM MgCl2 and 10 mM HEPES (pH adjusted to 7.4). The pipette solution consisted of 144 mM KCl, 5.4 mM CaCl2, 1.8 mM MgCl2, 4 mM NaATP, 0.4 mM GTP, 10 mM EGTA and 10 mM HEPES (pH adjusted to 7.2).
The membrane potential was measured in current clamp mode using the whole cell configuration of the patch clamp technique. A resting membrane potential of around −60 mV was initially recorded from this cell and the addition of 10 μM Compound 1 to the bath solution induced a hyper-polarisation of the membrane potential to −83 mV.
After washout of Compound 1, the membrane potential returned to −69 mV, and subsequent addition of 10 μM Retigabine, a KCNQ activator, induced a faster but smaller hyperpolarisation to a membrane potential of −76 mV.
The compounds were present in the bath solution during the times indicated by the bars.

KCNQ5 = target: T2, KCNQ5 (Homo sapiens, UniProt Q9NR82); test: Whole-cell voltage clamp of KCNQ5 stably expressed in HEK-293 cells; format: cell-based; settings: 10 μM, holding −90 mV, step to −30 mV
T2 construct: expressed in transfected cells; host or cells: HEK-293
Description: as §1, §2, §3
Expression of functional KCNQ4 channels or KCNQ5 channels was verified by patch-clamp measurements. […]
(§4) Whole-cell currents were recorded using a HEKA EPC-9 amplifier and borosilicate glass micropipettes with tip resistances of 1.5-3 MΩ. […]
The currents were measured from a cell patch clamped in the whole-cell voltage clamp configuration. […]
The currents recorded in the absence (control) and in the presence of 10 μM of the reference M current blocker XE-991 is shown in the panel to the left.

KCNQ4 [2] = target: T1, KCNQ4; test: Whole-cell voltage clamp of KCNQ4 stably expressed in HEK-293 cells; format: cell-based
Description: as §1, §2
Single clones were picked and propagated in selection media for five passages after which they were considered stable. Following the cells were cultured in regular medium without selection agent. […]
as §4
The currents were measured in voltage mode using the whole-cell configuration of the patch clamp technique. […]
The experimental conditions was as described above, but in this experiment the depolarising potential ranged from −120 mV to +40 mV before a step back to −120 mV where brief inward tail currents were recorded. […]

BK channels = BK channels (Homo sapiens, UniProt Q12791); settings: background statement; cited from earlier work
KCNQ channels = settings: background statement; cited from earlier work

Sequence of BK channels (Q12791 whole entry): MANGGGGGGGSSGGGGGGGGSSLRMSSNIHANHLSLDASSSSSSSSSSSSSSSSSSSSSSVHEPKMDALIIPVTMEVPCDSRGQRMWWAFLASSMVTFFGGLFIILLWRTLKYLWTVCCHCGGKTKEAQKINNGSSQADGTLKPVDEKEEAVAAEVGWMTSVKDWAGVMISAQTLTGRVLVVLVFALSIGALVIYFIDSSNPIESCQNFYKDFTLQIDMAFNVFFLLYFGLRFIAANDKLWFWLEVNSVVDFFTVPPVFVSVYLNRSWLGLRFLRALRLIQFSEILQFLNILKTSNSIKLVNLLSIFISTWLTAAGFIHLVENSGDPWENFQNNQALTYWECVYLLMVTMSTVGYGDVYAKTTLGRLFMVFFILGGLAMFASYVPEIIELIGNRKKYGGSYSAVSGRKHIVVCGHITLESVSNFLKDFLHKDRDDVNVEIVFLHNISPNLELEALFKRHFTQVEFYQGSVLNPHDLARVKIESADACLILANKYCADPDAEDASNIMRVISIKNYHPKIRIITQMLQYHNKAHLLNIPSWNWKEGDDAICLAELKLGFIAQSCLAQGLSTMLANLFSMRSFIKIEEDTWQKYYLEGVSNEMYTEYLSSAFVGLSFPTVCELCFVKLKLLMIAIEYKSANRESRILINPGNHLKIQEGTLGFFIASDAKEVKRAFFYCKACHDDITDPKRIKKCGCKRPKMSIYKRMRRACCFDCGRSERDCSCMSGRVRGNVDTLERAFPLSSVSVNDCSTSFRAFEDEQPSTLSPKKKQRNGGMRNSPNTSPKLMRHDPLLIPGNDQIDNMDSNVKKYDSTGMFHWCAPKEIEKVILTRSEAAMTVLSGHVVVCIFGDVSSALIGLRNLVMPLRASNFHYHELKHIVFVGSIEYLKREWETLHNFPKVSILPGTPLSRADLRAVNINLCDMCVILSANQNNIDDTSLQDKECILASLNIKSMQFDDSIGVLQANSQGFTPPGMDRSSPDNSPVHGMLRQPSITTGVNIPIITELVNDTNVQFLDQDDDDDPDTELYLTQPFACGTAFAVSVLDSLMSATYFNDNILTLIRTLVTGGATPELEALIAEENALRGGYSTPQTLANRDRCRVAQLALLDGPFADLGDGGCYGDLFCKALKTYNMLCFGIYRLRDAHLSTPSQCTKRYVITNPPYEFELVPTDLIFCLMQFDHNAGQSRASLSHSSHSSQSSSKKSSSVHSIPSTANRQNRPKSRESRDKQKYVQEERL

| SMILES | membrane potential after addition of compound (KCNQ4 [1]) [mV] | membrane potential after washout of compound (KCNQ4 [1]; after washout of 10 μM compound) [mV] | effect on KCNQ5 currents (KCNQ5; after washout of XE-991, FIG. 4) | changes in IV relation and activation curve (KCNQ4 [2]; 3 μM, depolarising potential −120 mV to +40 mV, FIG. 2) | activation of KCNQ4 currents (KCNQ4 [2]; 0.1, 0.3, 1, 3 and 10 μM, holding −90 mV, step to −40 mV, HEK-293 cells, FIG. 1) | effect on BK channels (BK channels) | effect on KCNQ channels (KCNQ channels) | return of membrane potential upon washout (KCNQ4 [1]; after 10 μM compound) | reversibility of inhibition of KCNQ5 currents (KCNQ5; FIG. 4) |
| --- | --- | --- | --- | --- | --- | --- | --- | --- | --- |
| COc1ccc(Cl)cc1C1(F)C(=O)Nc2cc(C(F)(F)F)ccc21 (racemic) [Compound 1, (±)-3-(5-chloro-2-methoxyphenyl)-1,3-dihydro-3-fluoro-6-(trifluoromethyl)-2H-indol-2-one] | −83 | −69 | activation | changes in IV relation and activation curve | dose-dependent activation | – | – | – | – |
| O=C1N(c2ccccc2)c2ccccc2C1(Cc1ccncc1)Cc1ccncc1 [Linopiridine] | – | – | – | – | – | no effect | potent KCNQ inhibiting compounds | – | – |
| O=C1c2ccccc2C(Cc2ccncc2)(Cc2ccncc2)c2ccccc21 [XE-991] | −12 | – | – | – | – | no effect | potent KCNQ inhibiting compounds | returned very slowly towards the control level | not fully reversible |
